Source: PubChem BioAssay AID504572 (Johns Hopkins Ion Channel Center, 2011)

What follows are molecules tested against Short transient receptor potential channel 6 (Mus musculus) (UniProt Q61143) (assay: potency of TRPC6 cation channel blockers – HEK293 cells, membrane potential dye, IC50, SAR follow-up (AID 504572)). Details: acetylcholine-evoked membrane potential dye, FDSS.
Chain of Short transient receptor potential channel 6 (Mus musculus) (Q61143 whole entry, looked up): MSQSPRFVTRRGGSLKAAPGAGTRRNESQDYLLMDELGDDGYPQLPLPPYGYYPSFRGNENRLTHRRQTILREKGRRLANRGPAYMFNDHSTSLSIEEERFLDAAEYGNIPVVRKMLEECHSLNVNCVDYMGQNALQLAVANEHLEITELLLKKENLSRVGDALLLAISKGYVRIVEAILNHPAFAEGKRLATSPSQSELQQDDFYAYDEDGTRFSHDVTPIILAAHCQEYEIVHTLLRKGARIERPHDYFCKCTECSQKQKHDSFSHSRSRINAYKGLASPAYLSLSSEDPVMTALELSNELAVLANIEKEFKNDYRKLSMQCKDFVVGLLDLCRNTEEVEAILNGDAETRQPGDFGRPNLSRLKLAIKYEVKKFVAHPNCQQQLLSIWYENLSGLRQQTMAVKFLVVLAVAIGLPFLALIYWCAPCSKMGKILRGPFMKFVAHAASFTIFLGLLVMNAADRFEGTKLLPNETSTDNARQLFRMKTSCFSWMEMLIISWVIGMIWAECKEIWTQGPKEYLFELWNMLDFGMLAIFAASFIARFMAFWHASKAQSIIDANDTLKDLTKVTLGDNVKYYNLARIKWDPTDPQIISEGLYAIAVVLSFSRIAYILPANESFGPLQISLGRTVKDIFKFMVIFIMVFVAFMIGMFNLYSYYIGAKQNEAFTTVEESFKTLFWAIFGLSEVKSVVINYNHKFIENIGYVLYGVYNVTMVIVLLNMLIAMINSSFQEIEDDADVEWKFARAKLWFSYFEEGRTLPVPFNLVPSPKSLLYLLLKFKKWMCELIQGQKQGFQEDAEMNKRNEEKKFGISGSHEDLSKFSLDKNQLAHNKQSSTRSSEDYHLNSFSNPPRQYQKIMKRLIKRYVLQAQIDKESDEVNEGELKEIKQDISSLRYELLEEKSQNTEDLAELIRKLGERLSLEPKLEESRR
In the case of `CC(C)(C)n1cnc2cc(NCc3ccccc3Cl)ccc21`, the IC50 is reported as 4.76 µM.
Work on `CCOc1ccccc1CNc1ccc2c(c1)ncn2C(C)(C)C` yielded an IC50 of 2.16 µM.
Molecule `COc1ccccc1CNc1ccc2c(c1)ncn2C(C)(C)C` has an IC50 of 5.54 µM.
`CCOc1ccc(CNc2ccc3c(c2)ncn3C(C)(C)C)cc1` gave an IC50 of 2.51 µM.
`COc1ccc(OC)c(CNc2ccc3c(c2)ncn3C(C)(C)C)c1` gave an IC50 of 2.7 µM.
`CC(C)(C)n1cnc2cc(NCc3ccc(Cl)cc3Cl)ccc21` showed an IC50 of 6.42 µM.
